This is an account of results in patent US9617289B2, “RSV antiviral compounds” (JANSSEN R&D IRELAND, priority 2012, dated 2017).

Structures can show the parent of a compound that is named as a salt. Bounds are passed on as bounds.

For one experiment, the system named is rgRSV224 virus. The experiment in a line: Antiviral activity: inhibition of rgRSV224 (GFP-expressing RSV) replication in HeLa cells. The format is cell-based, respiratory syncytial virus. The note with it: human respiratory syncytial virus, HeLa, 72 h, read-out: RSV-wt_pEC50, rgRSV224 (MOI=0.02) in HeLa cells, GFP expression three days post-virus exposure. How it is done: Black 96-well clear-bottom microtiter plates (Corning, Amsterdam, The Netherlands) were filled in duplicate using a customized robot system with serial 4-fold dilutions of compound in a final volume of 50 μl culture medium [RPMI medium without phenol red, 10% FBS, 0.04% gentamycin (50 mg/ml) and 0.5% DMSO]. Then, 100 μl of a HeLa cell suspension (5×10^4 cells/ml) in culture medium was added to each well followed by the addition of 50 μl rgRSV224 (MOI=0.02) virus in culture medium using a multidrop dispenser (Thermo Scientific, Erembodegem, Belgium). rgRSV224 virus is an engineered virus that includes an additional GFP gene (Hallak et al, 2000) and was in-licensed from the NIH (Bethesda, Md., USA). Medium, virus- and mock-infected controls were included in each test. Cells were incubated at 37° C. in a 5% CO2 atmosphere. Three days post-virus exposure, viral replication was quantified by measuring GFP expression in the cells by a MSM laser microscope (Tibotec, Beerse, Belgium). The EC50 was defined as the 50% inhibitory concentration for GFP expression. In parallel, compounds were incubated for three days in a set of white 96-well microtitier plates (Corning) and the cytotoxicity of compounds in HeLa cells was determined by measuring the ATP content of the cells using the ATPlite kit (PerkinElmer, Zaventem, Belgium) according to the manufacturer's instructions. The CC50 was defined as the 50% concentration for cytotoxicity. SI is calculated as CC50/EC50.
`N#CCCCn1c(CN2C(=O)C3(CN(S(=O)(=O)c4cccs4)C3)c3ccccc32)nc2cc(Cl)ccc21` [Compound 91]: the EC50 was 0.234 nM. `N#CCCCn1c(CN2C(=O)C3(CN(C(=O)OC4COC4)C3)c3ccccc32)nc2cc(Cl)ccc21` [Compound 92, Oxetan-3-yl 1′-{[5-chloro-1-(3-cyanopropyl)-1H-benzimidazol-2-yl]methyl}-2′-oxo-1′,2′-dihydro-1H-spiro[azetidine-3,3′-indole]-1-carboxylate]: the EC50 is 0.0692 nM. The same measure, in the same setting: in the case of `N#CCCCn1c(CN2C(=O)C3(CN(S(=O)(=O)c4ccc(F)cc4)C3)c3ccccc32)nc2cc(Cl)ccc21` [Compound 93, 4-[5-Chroro-2-({1-[(4-fluorophenyl)sulfonyl]-2′-oxospiro-[azetidine-3,3′-indol]-1′(2′H)-yl}methyl)-1H-benzimidazol-1-yl]butanenitrile] it was 1.62 nM; in that of `CC(=O)NS(=O)(=O)N1CCC2(CC1)C(=O)N(Cc1nc3cc(Cl)ccc3n1CCCC#N)c1cnccc12` [Compound 95, N-[(1′-{[5-Chloro-1-(3-cyanopropyl)-1H-benzimidazol-2-yl]methyl}-2′-oxo-1′,2′-dihydro-1H-spiro[piperidine-4,3′-pyrrolo[2,3-c]pyridin]-1-yl)sulfonyl]acetamide], 0.0794 nM; in that of `N#CCCCn1c(CN2C(=O)C3(CCN(S(=O)(=O)c4cccs4)CC3)c3ccncc32)cc2cc(Cl)ccc21` [Compound 96, 4-(5-Chloro-2-{[2′-oxo-1-(thiophen-2-ylsulfonyl)spiro-[piperidine-4,3′-pyrrolo[2,3-c]pyridin]-1′(2′H)-yl]methyl}-1H-indol-1-yl)butanenitrile], 0.427 nM. With `CC(C)CCn1c(CN2C(=O)C3(CCN(C(=O)OC(C)(C)C)CC3)c3ccncc32)cc2cnccc21` [Compound 97, tert-Butyl 1′-{[1-(3-methylbutyl)-1H-pyrrolo[3,2-c]pyridin-2-yl]methyl}-2′-oxo-1,2′-dihydro-1H-spiro[piperidine-4,3′-pyrrolo[2,3-c]pyridine]-1-carboxylate], the EC50 was 1.45 nM. On to `COC(=O)N1CCC2(CC1)C(=O)N(Cc1nc3cc(Cl)ccc3n1CCCC#N)c1cnccc12` [Compound 98, Methyl 1′-{[5-chloro-1-(3-cyanopropyl)-1H-benzimidazol-2-yl]methyl}-2′-oxo-1′,2′-dihydro-1H-spiro[piperidine-4,3′-pyrrolo[2,3-c]pyridine]-1-carboxylate], for which the EC50 is 0.0676 nM. On the same count and under the same terms, the value for `CC(C)OC(=O)N1CCC2(CC1)C(=O)N(Cc1nc3cc(Cl)ccc3n1CCCC#N)c1cnccc12` [Compound 99, 1-Methylethyl 1′-{[5-chloro-1-(3-cyanopropyl)-1H-benzimidazol-2-yl]methyl}-2′-oxo-1′,2′-dihydro-1H-spiro[piperidine-4,3′-pyrrolo[2,3-c]pyridine]-1-carboxylate] was 0.024 nM.

For the molecule `NC(=O)CCCn1c(CN2C(=O)C3(CNC3)c3ccccc32)nc2cc(Cl)ccc21` [Compound 100, 4-{5-Chloro-2-[(2′-oxospiro[azetidine-3,3′-indol]-1′(2′H)-yl)methyl]-1H-benzimidazol-1-yl}butanamide], the EC50 was 263 nM.

As for `N#CCCCn1c(CN2C(=O)C3(CNC3)c3ccccc32)nc2cc(Cl)ccc21` [Compound 101, 4-{5-Chloro-2-[(2′-oxospiro[azetidine-3,3′-indol]-1′(2′H)-yl)methyl]-1H-benzimidazol-1-yl}butanenitrile], the EC50 is 0.891 nM.

Still in this experiment, the particulars now being: human respiratory syncytial virus, HeLa, 72 h, read-out: pEC50, rgRSV224 (MOI=0.02) in HeLa cells, GFP expression three days post-virus exposure (converted).
On to `CC(C)(C)OC(=O)N1CCC2(CC1)C(=O)N(Cc1cc3cc(Cl)ccc3n1CCCC#N)c1cnccc12` [Compound 63, tert-butyl 1′-((5-chloro-1-(3-cyanopropyl)-1H-indol-2-yl)-methyl)-2′-oxo-1′,2′-dihydrospiro[piperidine-4,3′-pyrrolo-[2,3-c]pyridine]-1-carboxylate], for which the EC50 is 0.158 nM.

For `CC(=O)N1CCC2(CC1)C(=O)N(Cc1cc3cc(Cl)ccc3n1CCCC#N)c1cnccc12` [Compound 64, 4-(2-((1-acetyl-2′-oxospiro[piperidine-4,3′-pyrrolo[2,3-c]-pyridin]-1′(2′H)-yl)methyl)-5-chloro-1H-indol-1-yl)butane-nitrile], the EC50 was 0.251 nM. Same read-out and setting: the value for `O=C1N(Cc2nc3nc(Cl)ccc3n2CCCC(F)(F)F)c2cnccc2C12CCCC2` [Compound 65, 1′-((5-chloro-1-(4,4,4-trifluorobutyl)-1H-imidazo[4,5-b]-pyridin-2-yl)methyl)spiro[cyclopentane-l,3′-pyrrolo[2,3-c]-pyridin]-2′(1′H)-one] was 0.631 nM; that for `CC(C)(C)OC(=O)N1CCC2(CC1)C(=O)N(Cc1nc3ncccc3n1CCCC(F)(F)F)c1cnccc12` [Compound 66, tert-butyl-2′-oxo-1′-((1-(4,4,4-trifluorobutyl)-1H-imidazo-[4,5-b]pyridine-2-yl)methyl)-1′,2′-dihydrospiro[piperidine-4,3′-pyrrolo[2,3-c]pyridine]-1-carboxylate] was 3.16 nM. Same read-out and setting: in the case of `CC(C)(C)OC(=O)N1CCC2(CC1)C(=O)N(Cc1nc3nc(Cl)ccc3n1CCCC(F)(F)F)c1cnccc12` [Compound 68, tert-butyl-1′-((5-chloro-1-(4,4,4-trifluorobutyl)-1H-imidazo-[4,5-b]pyridin-2-yl)methyl)-2′-oxo-1′,2′-dihydrospiro-[piperidine-4,3′-pyrrolo[2,3-c]pyridine]-1-carboxylate] it was 0.501 nM. Still for that read-out and setting: the value for `CC(C)(C)OC(=O)N1CCC2(CC1)C(=O)N(Cc1cc3nc(Cl)ccc3n1CCCCF)c1cnccc12` [Compound 69, tert-butyl 1′-((5-chloro-1-(4-fluorobutyl)-1H-pyrrolo[3,2-b]-pyridin-2-yl)methy)-2′-oxo-1′,2′-dihydrospiro[piperidine-4,3′-pyrrolo[2,3-c]pyridine]-1-carboxylate] was 5.01 nM.

As to `CC(C)(O)C(=O)N1CCC2(CC1)C(=O)N(Cc1cc3cc(Cl)ccc3n1CCCS(C)(=O)=O)c1cnccc12` [Compound 74, 1′-((5-chloro-1-(3-(methylsulfonyl)propyl)-1H-indol-2-yl)-methyl)-1-(2-hydroxy-2-methylpropanoyl)spiro[piperidine-4,3′-pyrrolo[2,3-c]pyridin]-2′(1′H)-one], the EC50 was 0.2 nM.

On to `COC(=O)N1CCC2(CC1)C(=O)N(Cc1cc3cc(Cl)ccc3n1CCCC#N)c1cnccc12` [Compound 76], for which the EC50 is less than 0.158 nM. Same read-out and setting: the value for `CC(C)OC(=O)N1CCC2(CC1)C(=O)N(Cc1cc3cc(Cl)ccc3n1CCCC#N)c1cnccc12` [Compound 77, isopropyl 1′-((5-chloro-1-(3-cyanopropyl)-1H-indol-2-yl)-methyl)-2′-oxo-1′,2′-dihydrospiro[piperidine-4,3′-pyrrolo-[2,3-c]pyridine]-1-carboxylate] was less than 0.158 nM; that for `N#CCCCn1c(CN2C(=O)C3(CCNCC3)c3ccncc32)cc2cc(Cl)ccc21` [Compound 78, 4-(5-chloro-2-((2′-oxospiro[piperidine-4,3′-pyrrolo[2,3-c]-pyridin]-1′(2′H)-yl)methyl)-1H-indol-1-yl)butanenitrile hydrochloride] was 0.631 nM. The same measure, in the same setting: the value for `N#CCCCn1c(CN2C(=O)C3(CCNCC3)c3ccncc32)nc2cc(Cl)ccc21` [Compound 84, 4-(5-chloro)-2-((2′-oxospiro[piperidine-4,3′-pyrrolo[2,3-c]-pyridin]-1′(2′H)-yl)methyl)-1H-benzo[d]imidazol-1-yl)butanenitrile hydrochloride] was 0.631 nM; that for `CC(C)(O)C(=O)N1CCC2(CC1)C(=O)N(Cc1cc3cc(Cl)ccc3n1CCCC#N)c1cnccc12` [Compound 86, 4-(5-chloro-2-((1-(2-hydroxy-2-methylpropanoyl)-2′-oxospiro[piperidine-4,3′-pyrrolo[2,3-c]pyridin]-1′(2′H)-yl)methyl)-1H-indol-1-yl)butanenitrile] was less than 0.158 nM; that for `CC(=O)N1CC2(C1)C(=O)N(Cc1nc3cc(Cl)ccc3n1CCCC#N)c1ccccc12` [Compound 88, 4-(2-((1-acetyl-2′-oxospiro[azetidine-3,3′-indolin]-1′-yl)-methyl)-5-chloro-1H-benzo[d]imidazol-1-yl)butanenitrile] was 0.398 nM. As for `N#CCCCn1c(CN2C(=O)C3(CCN(S(N)(=O)=O)CC3)c3ccncc32)nc2cc(Cl)ccc21` [Compound 89, 1′-((5-chloro-1-(3-cyanopropyl)-1H-benzo[d]imidazol-2-yl)-methyl)-2′-oxo-1′,2′-dihydrospiro[piperidine-4,3′-pyrrolo-[2,3-c]pyridine]-1-sulfonamide], the EC50 is 0.0794 nM.

Staying with this experiment, now noted: rgRSV224 (MOI=0.02) in HeLa cells, GFP expression three days post-virus exposure.
In general, pEC50 refers to the EC50 on a negative log10 scale, so that one unit is a factor of ten. Lower therefore signals a high EC50. `O=C1N(Cc2nc3nc(Cl)ccc3n2CCCC(F)(F)F)c2cnccc2C12CCOCC2` [Compound 67, 1′-((5-chloro-1-(4,4,4-trifluorobutyl)-1H-imidazo[4,5-b]-pyridin-2-yl)methyl)-2,3,5,6-tetrahydrospiro[pyran-4,3′-pyrrolo[2,3-c]pyridin]-2′(1′H)-one] had a pEC50 of 10.3.
